Assay results: publication PMC7707092, “Discovery and characterization of ORM‐11372, a novel inhibitor of the sodium‐calcium exchanger with positive inotropic activity” (British Journal of Pharmacology, 2020)
Values joined by “and” are separate entries in the source; they are usually repeats but may differ in a detail not shown here. Equal entries are not always repeated. Where two headings read alike, the source gives them in different places.

Experiments:
[1] = biological target: T1, rat NCX 1.1 current (I NCX) (Rattus norvegicus, UniProt Q01728); assay: NCX current (I NCX), whole‐cell patch‐clamp in rat ventricular cardiomyocytes; format: cell-based
T1 construct: In rat primary ventricular CMs, the magnitude of outward I NCX; endogenous in cells; host or cells: freshly isolated left ventricular cardiomyocytes of male Wistar rats
Experimental: Rats were anaesthetized with sodium thiopental (0.1 g·kg^−1, i.p.) and injected with heparin sodium (500 IU, i.v.). Hearts were rapidly excised, mounted via the aorta on a Langendorff apparatus, and retrogradely perfused at 37°C with the Krebs–Henseleit solution for 5 min, with Krebs‐Henseleit solution (composition (in mM): 118.5 NaCl, 4 KCI, 2 CaCl2, 1 MgSO4, 1.2 NaH2PO4, 25 NaHCO3, and 11.1 glucose), pH 7.4 when saturated with a mixture of 95% O2 and 5% CO2. The perfusion of the heart was continued using Ca^2+‐free Krebs–Henseleit solution for 10 min, and completed by the addition of 0.05% collagenase (type I), 0.05% hyaluronidase, and 200‐μM CaCl2, for a further 10 min. Subsequently, the left ventricular myocardium was minced and gently agitated. Dissociated cells were stored at room temperature in a solution containing (in mM) 89 KOH, 70 glutamate, 15 taurine, 30 KCI, 10 KH2PO4,10 HEPES, 0.5 MgCl2, 11 glucose, and 0.5 EGTA, and the pH was set to 7.3 using KOH. […] One drop of the cell suspension was placed in a recording chamber and mounted on the stage of an inverted microscope (Olympus IX51, Olympus, Japan), and the individual myocytes were allowed to settle and adhere to the bottom of the chamber for at least 5 min before initiating superfusion.
Manual patch‐clamp recordings of membrane currents (I NCX, L‐type Ca^2+ channel current [I CaL], human cardiac sodium 1.5 current [I Na], and I hERG) were undertaken using either an Axopatch 200B or Axopatch ID amplifier (Molecular Devices, USA), using the whole‐cell configuration. Cells were at least initially (except when recording I Na) perfused with an extracellular solution consisting of (in mM) 143 NaCl, 4 KCl, 1.8 CaCl2, 1.2 MgCl2, 5 glucose, and 10 HEPES (pH 7.4 with NaOH; osmolarity adjusted to 301 ± 3 mOsm). A slightly modified version was used for the rat ventricular CMs (in mM: 144 NaCl, 0.4 NaH2PO4, 4.0 KCl, 1.8 CaCl2, 0.53 MgSO4, 5.5 glucose, and 5.0 HEPES). Patch pipettes were pulled with a P‐2000 or P‐97 micropipette puller (Sutter Instruments, USA) from borosilicate glass capillaries and had resistances of between 2 and 4 MΩ when filled with any of the pipette solutions (see below). The data were filtered at 1 or 2 kHz and digitized at 10 kHz with acquisition and analysis performed by use of pClamp software (Versions 8–10; Molecular Devices; RRID:SCR_011323).
After the establishment of the whole‐cell configuration with hiPSC‐derived CMs or rat ventricular myocytes, the extracellular solution was switched to a K^+‐free bath solution as described earlier (Hobai, Khananshvili, & Levi, 1997; Jost et al., 2013). The solution was composed of (in mM) 135 NaCl, 10 CsCl, 1 CaCl2, 1 MgCl2, 0.2 BaCl2, 0.33 NaH2PO4, 10 TEACI, 10 HEPES, and 10 glucose supplemented with 20‐μM ouabain, 50‐μM lidocaine, and 1‐μM nisoldipine or 2‐μM nitrendipine at pH 7.0 (osmolarity adjusted to 301 ± 3 mOsm). The pipette solution contained (in mM) 140 CsOH, 75 aspartic acid, 20 TEACI, 5 MgATP, 10 HEPES, 20 NaCl, 20 EGTA, and 10 CaCl2 (pH adjusted to 7.2 with CsOH; osmolarity adjusted to 290 ± 2 mOsm). The free intracellular Ca^2+ level in the patch pipette was 140 nM according to Maxchelator (RRID:SCR_000459) software (Bers, Patton, & Nuccitelli, 2010).
The measurement of current in the K^+‐free bath solution using a ramp voltage protocol at 20‐s intervals represented the first control, after which values were measured in the presence of one or more increasing concentrations of ORM‐11372 and finally upon exposure to 10‐mM NiCl2. The voltage protocol consisted of voltage ramps (at a rate of 100 mV·s^−1) with a holding potential of […], which changed to −100 mV and then returned to −40 mV. I NCX was defined as the Ni^2+‐sensitive current value. However, for rat ventricular myocytes, the magnitude of the inward current (forward mode) was particularly small and variable. […]

[2] = biological target: T2, human NaV1.5 channel current (I Na) (Homo sapiens, UniProt Q14524); assay: NaV1.5 channel current (I Na), patch‐clamp in HEK cells; format: cell-based; details: room temperature
T2 construct: host or cells: HEK 293, transient (lipofectamine)
Excerpt: The hERG‐encoded voltage‐dependent potassium channel current (I hERG) cells to be studied were harvested with Detachin solution and either diluted with a volume of CHO cell serum‐free media (supplemented with 100 IU·ml^−1 of penicillin/streptomycin and 25‐mM HEPES) to obtain cells, for which the cell density was ~4 x10^6 cells·ml^−1, or plated on glass coverslips and used on the following 1–2 days. HEK 293 cells were transiently transfected using lipofectamine (Invitrogen, USA), with a human sodium voltage‐gated channel subunit 5 (hSCN5) A (transcript variant 2)‐containing plasmid, in Optimem medium. After a 5‐h incubation period, the transfection medium was replaced with the normal growth medium. The cells were harvested by trypsinization, centrifuged and resuspended in the appropriate extracellular solution for performing studies the next day. CHO–5‐HT2B cells were plated into 96‐well plates on the previous day, at a density of 4 x10^4 cells per well, with a modified version of the growth media.
Manual patch‐clamp recordings of membrane currents (I NCX, L‐type Ca^2+ channel current [I CaL], human cardiac sodium 1.5 current [I Na], and I hERG) were undertaken using either an Axopatch 200B or Axopatch ID amplifier (Molecular Devices, USA), using the whole‐cell configuration. […]

T2 sequence (Q14524 1-2015 isoform Q14524-2): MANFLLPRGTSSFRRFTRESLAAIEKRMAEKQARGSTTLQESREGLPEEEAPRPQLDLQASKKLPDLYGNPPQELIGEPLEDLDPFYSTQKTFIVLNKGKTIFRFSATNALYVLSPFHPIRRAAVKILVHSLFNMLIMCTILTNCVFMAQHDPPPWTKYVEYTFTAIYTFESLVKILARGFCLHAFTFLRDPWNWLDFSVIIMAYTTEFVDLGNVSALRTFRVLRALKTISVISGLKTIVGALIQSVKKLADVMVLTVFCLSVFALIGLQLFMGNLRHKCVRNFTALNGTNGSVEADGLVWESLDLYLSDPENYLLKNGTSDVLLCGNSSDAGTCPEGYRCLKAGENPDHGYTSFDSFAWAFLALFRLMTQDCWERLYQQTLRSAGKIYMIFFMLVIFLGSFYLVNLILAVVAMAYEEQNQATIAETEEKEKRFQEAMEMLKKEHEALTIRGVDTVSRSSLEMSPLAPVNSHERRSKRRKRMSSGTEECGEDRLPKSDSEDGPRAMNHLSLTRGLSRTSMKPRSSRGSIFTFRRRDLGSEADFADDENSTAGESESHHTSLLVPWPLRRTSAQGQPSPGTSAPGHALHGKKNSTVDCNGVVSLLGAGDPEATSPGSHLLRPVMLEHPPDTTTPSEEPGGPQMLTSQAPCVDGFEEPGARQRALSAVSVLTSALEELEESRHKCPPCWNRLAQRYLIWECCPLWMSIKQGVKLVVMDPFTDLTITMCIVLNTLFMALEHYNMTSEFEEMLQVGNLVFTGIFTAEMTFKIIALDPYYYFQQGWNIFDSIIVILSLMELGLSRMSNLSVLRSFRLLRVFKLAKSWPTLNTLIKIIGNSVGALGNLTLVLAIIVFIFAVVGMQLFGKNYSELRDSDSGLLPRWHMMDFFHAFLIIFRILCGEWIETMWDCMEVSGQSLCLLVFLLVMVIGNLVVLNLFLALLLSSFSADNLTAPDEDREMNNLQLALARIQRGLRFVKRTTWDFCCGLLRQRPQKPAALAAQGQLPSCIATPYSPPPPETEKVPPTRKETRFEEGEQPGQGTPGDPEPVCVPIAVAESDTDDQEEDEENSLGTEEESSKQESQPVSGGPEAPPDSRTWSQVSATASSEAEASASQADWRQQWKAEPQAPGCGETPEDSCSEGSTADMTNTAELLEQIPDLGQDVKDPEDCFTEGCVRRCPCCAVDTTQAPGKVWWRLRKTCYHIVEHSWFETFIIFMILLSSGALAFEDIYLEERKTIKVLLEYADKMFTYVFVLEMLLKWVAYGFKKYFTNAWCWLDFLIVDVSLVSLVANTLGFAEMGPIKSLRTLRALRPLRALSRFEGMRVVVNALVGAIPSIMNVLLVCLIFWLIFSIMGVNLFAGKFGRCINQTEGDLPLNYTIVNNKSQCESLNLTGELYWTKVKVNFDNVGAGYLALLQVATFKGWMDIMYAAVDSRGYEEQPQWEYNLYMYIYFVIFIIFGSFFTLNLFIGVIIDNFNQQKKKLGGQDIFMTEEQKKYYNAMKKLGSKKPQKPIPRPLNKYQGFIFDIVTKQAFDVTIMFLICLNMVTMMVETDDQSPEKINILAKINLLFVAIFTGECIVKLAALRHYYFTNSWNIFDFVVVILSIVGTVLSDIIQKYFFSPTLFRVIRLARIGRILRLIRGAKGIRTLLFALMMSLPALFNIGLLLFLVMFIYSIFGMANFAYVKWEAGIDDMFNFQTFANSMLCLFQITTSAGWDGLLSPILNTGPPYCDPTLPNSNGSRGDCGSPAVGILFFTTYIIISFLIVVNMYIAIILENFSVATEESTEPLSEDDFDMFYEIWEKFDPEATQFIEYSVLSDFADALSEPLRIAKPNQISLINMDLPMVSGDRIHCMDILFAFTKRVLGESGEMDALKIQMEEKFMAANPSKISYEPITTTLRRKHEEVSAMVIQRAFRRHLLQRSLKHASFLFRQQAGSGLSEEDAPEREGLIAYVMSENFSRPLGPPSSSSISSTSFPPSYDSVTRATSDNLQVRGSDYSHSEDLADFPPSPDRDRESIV

Nc1cccc(-c2ccc(CNc3ccc(F)cc3)o2)c1 [ORM‐11372]
inhibition at 0.004 µM ([1]; 4 nM, read-out: in vitro NCX 1.1 current inhibition): 34%
inhibition at 0.036 µM ([1]; 36 nM, read-out: in vitro NCX 1.1 current inhibition): 67%
inhibition at 0.092 µM ([1]; 92 nM, read-out: in vitro NCX 1.1 current inhibition): 79%
inhibition at 0.351 µM ([1]; 351 nM, read-out: in vitro NCX inhibition): 90%
IC50 ([1]; rat CMs, summarised (discussion), read-out: IC50 rat NCX 1.1 currents): 0.01 µM
IC50 ([1]; rat primary ventricular CMs, read-out: IC50 outward I NCX (reverse mode)): 0.0113 µM and 0.011 µM
inhibition at 0.01 µM ([1]; rat ventricular CMs, 10 nM, altered conditions to enhance inward current, n=3, read-out: inhibition of inward I NCX (forward mode)): 53.8 ± 3.9%
IC50 [2]: 23.2 µM
